Test results from patent US11555035B2, “Heterocyclic compound and harmful arthropod-controlling agent containing same” (SUMITOMO CHEMICAL COMPANY, LIMITED, priority 2017, dated 2023).

Tested on: German cockroaches (Blattella germanica)
Test: Test method 9: treated filter paper with sucrose, German cockroaches
Assay type: in vivo
Settings: 500 ppm, 0.7 mL on filter paper, male adults, after 6 days
Protocol: Next, Test Examples are used to show effects of the Present compounds on harmful arthropods. In the following Test Examples, the tests were carried out at 25° C.
Each test compound is formulated according to the process described in the Formulation Example 5 to obtain each formulation, and water is added thereto to prepare a diluted solution containing a prescribed concentration of each test compound.
A filter paper having a diameter of 5.5 cm is lined with the inside bottom of a cup having a diameter of 5.5 cm, each of said diluted solutions (0.7 mL) is added dropwise on the filter paper, and sucrose (30 mg) is homogeneously placed into said cup as a feed. Two(2) male adult German cockroaches (Blattella germanica) are released into said cup, and the cup is covered. After 6 days, life and death of the German cockroach are examined, the number of the dead insects is counted, and the mortality of insects is calculated by the following equation. Mortality(%)=(Number of dead insects/Number of test insects)×100

Row | SMILES | mortality [%]
1 | CCS(=O)(=O)c1cc(-c2ncc(C#N)cn2)cnc1-c1nc2cc(C(F)(F)F)cnc2n1C [compound 2] | 100
2 | CCS(=O)(=O)c1cc(-c2ncc(C#N)cn2)c(N)nc1-c1nc2cc(C(F)(F)F)cnc2n1C [compound 7] | 100
